# Reference: patent US10808008B2, “Aromatic-cationic peptides and uses of same” (Cornell University, priority 2012, dated 2020)
# Entries after “also recorded” stand apart in the source; their conditions may differ.
# How the values were obtained:
# Type in all cases: biochemical
# [1] = molecular target: cytochrome c/cardiolipin complex (Equus caballus, UniProt P00004); assay: Soret circular dichroism of cytochrome c with cardiolipin; details: 10 μM cytochrome c; for protection against CL-induced disappearance of negative Cotton effect: 30 μg/ml CL, 10 μM peptide, 20 mM HEPES pH 7.5, 25° C.; for loss of the negative Cotton peak at 419 nm caused by cardiolipin: 30 μg/ml cardiolipin, peptide 1:1 with cytochrome c, pH 7.4
# cytochrome c/cardiolipin complex, sequence (P00004 2-105 limits assumed, one chain of several): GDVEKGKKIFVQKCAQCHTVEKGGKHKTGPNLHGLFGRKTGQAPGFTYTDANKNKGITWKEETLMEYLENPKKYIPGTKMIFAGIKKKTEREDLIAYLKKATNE
# Method: Circular dichroism (CD) was carried out to examine the effects of the peptides on protecting the heme environment of cytochrome c from the acyl chain of CL. For heme proteins, the Soret CD spectrum is strictly correlated with the heme pocket conformation. In particular, the negative 416-420 nm Cotton effect is considered diagnostic of Fe(III)-Met80 coordination in native cytochrome c (Santucci and Ascoli, 1997). […] CD spectra were obtained using AVIV CD Spectrometer Model 410.
# Changes in the Soret CD spectrum of cytochrome c (10 μM) were recorded in the absence (dotted line) and presence (dashed line) of 30 μg/ml CL, plus addition of different peptides (10 μM) (solid line) (FIG. 14). CD measurements were carried out using 20 mM HEPES, pH 7.5, at 25° C. and expressed as molar ellipticity (A) (m Deg). […] Accordingly, aromatic-cationic peptides of the present disclosure are useful for the prevention or treatment of diseases or disorders characterized by dysregulation of cardiolipin and/or cytochrome c, and/or diseases or disorders characterized by dysregulation of the cardiolipin/cytochrome c interaction. In addition, aromatic-cationic peptides of the present disclosure are useful to protect the heme environment of cytochrome c from the acyl chain of cardiolipin.
# Circular Dichroism (CD) spectra were collected with an AVIA 62 DS spectrophotometer equipped with a sample temperature controller. CD spectra of the Soret region (370-450 nm) were recorded with 10-mm path length cells containing 20 mM Hepes, pH 7.4, and 10 μM cytochrome c, in the presence or absence of 30 μg/ml cardiolipin and different SS peptide analogs (SS-02, [atn]SS-02, [ald]SS-02, and SS-31). The maximum lipid concentration was kept low to avoid spectral distortions due to excessive light scattering. All measurements were done at 25° C. All spectra were corrected for background, and the final spectrum shown represents the average of at least three experiments.
# [2] = molecular target: cardiolipin-cytochrome c complex (Equus caballus, UniProt P00004); assay: Cytochrome c reduction in the presence of cardiolipin; details: for rate of cytochrome c reduction in the presence of cardiolipin: 40 μM peptide, 100 μg/ml cardiolipin, 50 μM ascorbate, 10% with cardiolipin alone
# cardiolipin-cytochrome c complex, sequence (P00004 2-105 limits assumed, one chain of several): as above
# Method: Reduction of cytochrome c (20 μM) was induced by the addition of glutathione (500 μM) in the absence or presence of CL (100 μg/ml) (FIG. 15A). Reduction of cytochrome c was monitored by absorbance at 550 nm using a 96-well UV-VIS plate reader (Molecular Devices). Addition of CL decreased the rate of cytochrome c reduction by half.
# The time course of cytochrome c reduction by ascorbate was recorded at 550 nm and 570 nm using a 96-well plate reader (Molecular Devices, Sunnyvale, Calif.). For all reactions, cytochrome c was preincubated with cardiolipin in the presence or absence of SS peptides for 1 min. […] Ascorbate (50 μM) was added to initiate the reduction of cytochrome c, and the absorbance was recorded for 5 min. The rate of reduction was calculated based on slope of the change in absorbance intensity of 550 nm over 570 nm.
# [3] = molecular target: cytochrome c/CL complex (Equus caballus, UniProt P00004); assay: Peroxidase activity of cytochrome c/cardiolipin complex (Amplex Red); details: 2 μM cytochrome c; for peroxidation rate of cytochrome c: 10 μM peptide, cardiolipin 100 μg/ml
# cytochrome c/CL complex, sequence (P00004 2-105 limits assumed, one chain of several): as above
# Source text: The six coordination of the heme in cytochrome c prevents direct interaction of H2O2 with the catalytic metal site, and native cytochrome c in solution is a poor peroxidase. Upon interaction with CL, cytochrome c undergoes a structural change with rupture of the Fe-Met80 coordination. […] The mechanism of action of cytochrome c peroxidase is similar to that of other peroxidases, such as horse radish peroxidase (HRP). Thus it is possible to use the amplex red-HRP reaction to investigate cytochrome c peroxidase activity. In the presence of peroxidase, amplex red (AR) reacts with H2O2 to form the red-fluorescent oxidation product, resorufin (Ex/Em=571/585).
# Cytochrome c (2 μM) was mixed with CL (25 μg/ml) and 10 μM H2O2 in 20 mM HEPES, pH 7.4. Amplex red (50 μM) was then added and fluorescence emission monitored in real time using Hitachi F4500 fluorescence spectrophotometer. Addition of amplex red elicited rapid increase in fluorescence signal due to resorufin formation, providing direct evidence for peroxidase activity of cytochrome c/CL complex (FIG. 19A).
# Assessment of cytochrome c peroxidase activity was achieved using the Amplex® Red assay (Invitrogen/Life Technologies, Carlsbad, Calif.). Amplex® Red is a reagent that reacts with H2O2 in a 1:1 stoichiometry to produce highly fluorescent resorufin (λex/λem=570/585) in the presence of a peroxidase. In this assay, cytochrome c is added in place of horseradish peroxidase. 2 μM cytochrome c was incubated with cardiolipin or cardiolipin-POPC liposomes (10 μg/ml) for 1 min in 20 mM HEPES (pH 7.4) or deionized water prior to the addition of 50 μM Amplex® Red reagent and 10 μM H2O2, and the reaction was allowed to proceed for an additional 5 minutes. The continuous time course data were obtained using Hitachi F-4500 fluorescence spectrophotometer. When comparing the different SS peptide analogs (10 μM) in inhibiting peroxidase activity cytochrome c (2 μM) in the presence of cardiolipin (100 μg/ml), a microplate spectrofluorometer (Molecular Devices, Sunnyvale, Calif.) was used. Horseradish peroxidase (HRP) was used for comparison, and the HRP concentration (0.001 U/ml) was optimized to match the rate of Amplex® Red peroxidation by cardiolipin-cytochrome c complex.
# [4] = molecular target: cytochrome c and cardiolipin (Equus caballus, UniProt P00004); assay: Oxidation of ferrous cytochrome c by cardiolipin (A550); details: 20 μM cytochrome c reduced by 50 μM ascorbic acid; 100 μg/ml cardiolipin
# cytochrome c and cardiolipin, sequence (P00004 2-105 limits assumed): as the sequence (P00004 2-105 limits assumed, one chain of several) above
# Method: Cytochrome c (20 μM) was reduced by 50 μM ascorbic acid until all available functionally active cytochrome c was reduced. The reduction of cytochrome c was monitored by the appearance of a peak at 550 nm in its absorbance spectrum (Molecular Devices, Sunnyvale, Calif.). […] The rate of oxidation was calculated based on slope of the change in absorbance intensity of 550 nm over 570 nm.
Substance,protection against CL-induced disappearance of negative Cotton effect [1],loss of the negative Cotton peak at 419 nm caused by cardiolipin [1],rate of cytochrome c reduction in the presence of cardiolipin ([2]; 20 μM cytochrome c),peroxidation rate of cytochrome c [3],oxidation of cytochrome c by cardiolipin (loss of the 550 nm peak) [4],"inhibitory action of CL on cytochrome c reduction ([2]; 20 μM cytochrome c, 500 μM glutathione, CL 100 μg/ml, SS-31 20, 40 or 100 μM)",inhibitory effect of CL on kinetics of cytochrome c reduction ([2]; 500 μM GSH or 50 μM ascorbate),"rate of amplex red peroxidation / kinetics of cytochrome c peroxidase activity ([3]; CL 25 μg/ml, 10 μM H2O2, 50 μM amplex red)"
"2′,6′-Dmt-D-Arg-Ald-Lys-NH2 [SS-36]",Protect the Heme Environment of Cytochrome c from the Acyl Chain of CL,prevented,about 90%,about 20 % of control,inhibition of cytochrome c oxidation,–,–,–
"2′,6′-Dmt-D-Arg-Phe-(atn)Dap-NH2 [SS-19]",Protect the Heme Environment of Cytochrome c from the Acyl Chain of CL,prevented,about 50%,~75 % of control,inhibition of cytochrome c oxidation,–,–,–
"D-Arg-2′,6′-Dmt-Lys-Phe-NH2 [SS-31]",Protect the Heme Environment of Cytochrome c from the Acyl Chain of CL,prevented,100%,~35 % of control,prevented by the addition of SS-31 in a concentration-dependent manner,dose-dependently prevented the inhibitory action of CL,dose-dependently overcame the inhibitory effect of CL,decreased the rate of amplex red peroxidation; also recorded: dose-dependently reduced the kinetics of cytochrome c peroxidase activity
